# Where a name gives a salt, the structure may show the parent alone.
# What was measured:
# Assay type in all cases: cell-based, human
# [1] = tested on: LC3-II; assay: Western immunoblotting of autophagy marker LC3-I/II; settings: U87-MG, 12 h treatment +/- 12 h HCQ co-treatment, total 24 h
# Protocol: (§1) U87-MG cells were plated at 500,000 cells/well in 6-well plates and allowed to adhere overnight (Falcon). Medium was removed and replaced with fresh medium containing drugs or compounds for the indicated timepoints. Cells were collected after treatment by washing with PBS, harvested with trypsin plus agitation to detach cells, pelleted in a centrifuge and resuspended in PBS to wash. Cells were transferred to 1.5 mL microcentrifuge tubes, pelleted, and resuspended in RIPA lysis buffer (50 mM Tris pH 8.0, 150 mM NaCl, 1% nonidet P40, 0.5% sodium deoxycholate, and 0.05% SDS) containing 1 mM NaVO4, 1 mM NaF, 1 mM phenylmethylsulfonyl fluoride, 0.1 μg/mL antipain, 1 μM aprotinin, 100 μM benzamidine HCl, 0.1 μg/mL leupeptin, 0.1 μg/mL pepstatin, and 0.1 μg/mL soybean trypsin inhibitor. Protein was quantified using a BCA assay kit (Pierce). 50 μg of protein was prepared in 1× Laemmli sample buffer (50 mM Tris pH 6.8, 0.02% w/v bromophenol blue, 2% w/v SDS, 10% v/v glycerol, 1% v/v beta-mercaptoethanol, 12.5 mM EDTA) and separated by SDS-PAGE on a 4-15% polyacrylamide gradient gel (Bio-Rad). […]
# [2] = tested on: mitochondria; assay: MitoTracker Red CMXRos staining of the mitochondrial network; settings: U87-MG, 24 h; 2 μM Y102, 50 μM HCQ
# Protocol: For MitoTracker Red CMXRos staining, 30 minutes prior to collection medium was removed and replaced with medium containing MitoTracker Red CMXRos at a final concentration of 100 nM (Molecular Probes). Following staining, cells were washed with PBS and fixed with 4% paraformaldehyde without methanol. Cells were washed with PBST, then permeabilized with 0.5% Triton X-100 in PBS. When co-staining with another marker, the staining procedure continued with the blocking step; otherwise, cells were stained with 0.33 μg/mL DAPI in PBS and mounted onto slides in ProLong Gold (Life Technologies).
# [3] = tested on: sequestosome-1 (p62); assay: Immunofluorescence staining for p62; settings: U87-MG, 24 h; 2 μM Y102, 50 μM HCQ; HCQ and Y102 compared with each other
# Protocol: (§2) U87-MG cells were plated at a concentration of 50,000 cells/well onto precoated poly-D-lysine (PDL) coverslips (Neuvitro) in 24-well plates (Falcon) and allowed to adhere overnight. Medium was removed and replaced with treatment-laced media normalized to DMSO, and cells were treated for the indicated timepoints. At the time of collection, cells were washed with PBS and fixed with 4% paraformaldehyde without methanol (EMS) or 100% methanol (Fischer). Coverslips were washed with Tween20-containing PBS (PBST; Fischer). Following permeabilization with 0.5% Triton X-100 in PBS (Fischer), coverslips were blocked for 1 h at room temperature in IF Buffer (0.05% azide, 0.2% Triton X-100, 2% Normal Goat Serum or, for 8-OHG, Normal Donkey Serum). The following primary antibodies were used for 1 hour at room temperature unless specified: AlexaFluor 488 pre-conjugated anti-γ-H2AX (N1-431) mouse monoclonal (30 minutes; BD Biosciences), anti-cleaved caspase 3 (Asp175) rabbit polyclonal (Cell Signaling), anti-SQSTM1/p62 (D-3) mouse monoclonal (Santa Cruz), anti-8-Hydroxyguanosine goat polyclonal (1:200; Millipore), anti-LAMP1 (D4O1S) mouse monoclonal (O/N at 4° C.; Cell Signaling), anti-BNIP3L/Nix (D4R4B) rabbit monoclonal (O/N at 4° C.; Cell Signaling), anti-FLAG (M2) mouse monoclonal (2 hours at 37° C.; Sigma-Aldrich). […]
# [4] = tested on: p62; assay: Western immunoblotting of autophagy marker p62; settings: U87-MG, 12 h treatment +/- 12 h HCQ
# Protocol: as §1
# [5] = tested on: BNIP3L/Nix; assay: Immunofluorescence staining for mitophagy receptor BNIP3L/Nix; settings: U87-MG, 24 h; 2 μM Y102, 100 μM CoCl2; CoCl2 and Y102 compared with each other
# Protocol: as §2
structure (smiles),measurement,setting,value
"CCN(CCO)CCCC(C)Nc1ccnc2cc(Cl)ccc12 (centres unmarked) [HCQ, Hydroxychloroquine Sulfate, reference compound]",LC3-II accumulation (western immunoblotting),[1],resulted in LC3-II accumulation
same,mitochondrial phenotype (perinuclear clustering),[2],not observed
same,p62 expression compared to DMSO (immunofluorescence),[3],similar
same,p62 expression (western immunoblotting),[4],increased
"[Cl-].[Cl-].[Co+2] [CoCl2, Cobalt (II) Chloride, reference compound]",expression/localization of BNIP3L/Nix on the mitochondria compared to DMSO control,[5],similar

# Source: patent US20220326218A1, “COMPOSITION AND METHOD FOR INHIBITING BORC COMPLEX TO TREAT CANCERS WITH NF1 DEFICIENCY AND DYSREGULATED RAS SIGNALING” (THE TRUSTEES OF DARTMOUTH COLLEGE, priority 2019, published 2022)
